Results from ChEMBL document CHEMBL2417479, “Effects of the methoxy group in the side chain of debromoaplysiatoxin on its tumor-promoting and anti-proliferative activities” (Bioorg Med Chem Lett, 2013).

Legend:
Mus musculus [1] = assay: In vivo tumor-promoting activity in DMBA-treated ICR mouse assessed as increase in number of papillomas at 1.7 nmol administered twice per week measured at 13 to 20 weeks by two-stage carcinogenesis assay; format: ADME, organism-based
Raji [2] = assay: Tumor-promoting activity against human Raji cells expressing EBV-EA at 10^-8 M after 48 hrs by indirect immunofluorescence assay relative to control; format: ADME, cell-based; details: 0.01 µM
Mus musculus [3] = assay: In vivo tumor-promoting activity in DMBA-treated ICR mouse assessed as tumor bearing mouse at 3.4 nmol administered twice per week measured after 20 weeks by two-stage carcinogenesis assay relative to control; format: ADME, organism-based; details: 3360 h
Mus musculus [4] = assay: In vivo tumor-promoting activity in DMBA-treated ICR mouse assessed as increase in number of papillomas at 3.4 nmol administered twice per week measured at 11 to 20 weeks by two-stage carcinogenesis assay; format: ADME, organism-based
Raji [5] = assay: Tumor-promoting activity against human Raji cells expressing EBV-EA at 10^-7 M after 48 hrs by indirect immunofluorescence assay relative to control; format: ADME, cell-based; details: 0.1 µM
Mus musculus [6] = assay: In vivo tumor-promoting activity in DMBA-treated ICR mouse assessed as tumor bearing mouse at 1.7 nmol administered twice per week measured after 20 weeks by two-stage carcinogenesis assay relative to control; format: ADME, organism-based; details: 3360 h
Raji [7] = assay: Tumor-promoting activity against human Raji cells expressing EBV-EA at 10^-6 M after 48 hrs by indirect immunofluorescence assay relative to control; format: ADME, cell-based; details: 1 µM
[8] = Cytotoxicity against human Raji cells assessed as cell viability at 10^-8 M relative to control; format: cell-based; details: read-out: Activity
[9] = Cytotoxicity against human Raji cells assessed as cell viability at 10^-7 M relative to control; format: cell-based; details: read-out: Activity
[10] = Cytotoxicity against human Raji cells assessed as cell viability at 10^-6 M relative to control; format: cell-based; details: read-out: Activity
[11] = molecular target: Protein kinase C alpha type (Homo sapiens, UniProt P17252); assay: Displacement of [3H]PDBu from PKCalpha C1A domain (unknown origin)
HCT-116 = assay: Growth inhibition of human HCT116 cells after 48 hrs by SRB assay; format: functional; details: HCT-116, 48 h
ACHN = assay: Growth inhibition of human ACHN cells after 48 hrs by SRB assay; format: functional
NCI-H522 = assay: Growth inhibition of human NCI-H522 cells after 48 hrs by SRB assay; format: functional; details: NCI-H522, 48 h
NCI-H226 = assay: Growth inhibition of human NCI-H226 cells after 48 hrs by SRB assay; format: functional; details: NCI-H226, 48 h
MKN-74 = assay: Growth inhibition of human MKN74 cells after 48 hrs by SRB assay; format: functional; details: MKN-74, 48 h
NCI-H23 = assay: Growth inhibition of human NCI-H23 cells after 48 hrs by SRB assay; format: functional; details: NCI-H23, 48 h
OVCAR-8 = assay: Growth inhibition of human OVCAR8 cells after 48 hrs by SRB assay; format: functional; details: OVCAR-8, 48 h
[12] = Growth inhibition of human RXF631L cells after 48 hrs by SRB assay; format: functional; details: RXF 631, 48 h
SK-OV-3 = assay: Growth inhibition of human SKOV3 cells after 48 hrs by SRB assay; format: functional; details: SK-OV-3, 48 h
[13] = Growth inhibition of human BSY1 cells after 48 hrs by SRB assay; format: functional; details: BSY-1, 48 h
KM12 = assay: Growth inhibition of human KM12 cells after 48 hrs by SRB assay; format: functional; details: KM12, 48 h
[14] = molecular target: Protein kinase C delta type (Homo sapiens, UniProt Q05655); assay: Displacement of [3H]PDBu from PKCdelta C1B domain (unknown origin)
Protein kinase C delta type, sequence (Q05655 whole entry, the tested form may be a part): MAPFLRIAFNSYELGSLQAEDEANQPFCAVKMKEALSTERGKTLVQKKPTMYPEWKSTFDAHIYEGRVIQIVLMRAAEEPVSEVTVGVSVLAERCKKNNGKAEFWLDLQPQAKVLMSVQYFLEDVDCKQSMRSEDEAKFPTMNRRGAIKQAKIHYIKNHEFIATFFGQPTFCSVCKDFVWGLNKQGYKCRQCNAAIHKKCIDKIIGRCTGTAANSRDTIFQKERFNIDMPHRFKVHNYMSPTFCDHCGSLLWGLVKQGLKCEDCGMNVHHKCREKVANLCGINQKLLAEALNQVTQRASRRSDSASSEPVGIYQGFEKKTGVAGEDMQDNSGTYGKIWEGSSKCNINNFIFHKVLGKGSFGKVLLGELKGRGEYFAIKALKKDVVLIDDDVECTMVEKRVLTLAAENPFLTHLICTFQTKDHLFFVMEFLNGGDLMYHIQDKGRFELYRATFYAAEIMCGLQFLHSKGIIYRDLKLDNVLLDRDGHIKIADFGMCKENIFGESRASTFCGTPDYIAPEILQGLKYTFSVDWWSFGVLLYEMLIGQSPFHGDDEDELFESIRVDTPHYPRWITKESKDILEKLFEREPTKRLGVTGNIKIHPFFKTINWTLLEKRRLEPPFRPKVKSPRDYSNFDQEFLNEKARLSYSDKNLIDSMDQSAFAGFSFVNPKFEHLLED

[15] = Growth inhibition of human HBC4 cells after 48 hrs by SRB assay; format: functional; details: HBC4, 48 h
OVCAR-4 = assay: Growth inhibition of human OVCAR4 cells after 48 hrs by SRB assay; format: functional; details: OVCAR-4, 48 h
[16] = molecular target: Protein kinase C eta type (Homo sapiens, UniProt P24723); assay: Displacement of [3H]PDBu from PKCeta C1B domain (unknown origin)
Protein kinase C eta type, sequence (P24723 whole entry, the tested form may be a part): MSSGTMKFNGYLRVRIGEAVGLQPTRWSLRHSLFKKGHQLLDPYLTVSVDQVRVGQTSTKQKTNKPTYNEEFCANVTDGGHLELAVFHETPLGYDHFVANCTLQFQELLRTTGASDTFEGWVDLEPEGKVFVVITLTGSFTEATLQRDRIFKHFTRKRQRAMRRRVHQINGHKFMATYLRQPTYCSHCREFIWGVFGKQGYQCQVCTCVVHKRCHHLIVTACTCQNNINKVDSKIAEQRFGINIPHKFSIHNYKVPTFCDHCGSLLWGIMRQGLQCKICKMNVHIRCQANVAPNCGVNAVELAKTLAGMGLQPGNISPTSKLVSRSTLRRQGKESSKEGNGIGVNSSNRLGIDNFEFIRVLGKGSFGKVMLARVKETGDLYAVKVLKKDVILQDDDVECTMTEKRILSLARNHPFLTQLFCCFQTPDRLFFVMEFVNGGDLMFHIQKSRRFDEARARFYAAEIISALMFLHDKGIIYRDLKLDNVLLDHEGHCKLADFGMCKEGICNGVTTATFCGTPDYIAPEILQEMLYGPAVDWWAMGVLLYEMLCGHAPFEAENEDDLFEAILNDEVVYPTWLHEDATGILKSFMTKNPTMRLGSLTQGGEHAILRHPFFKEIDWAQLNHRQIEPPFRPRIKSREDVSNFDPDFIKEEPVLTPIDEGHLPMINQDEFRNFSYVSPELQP

MCF7 = assay: Growth inhibition of human MCF7 cells after 48 hrs by SRB assay; format: functional; details: MCF7, 48 h
DMS-273 = assay: Growth inhibition of human DMS273 cells after 48 hrs by SRB assay; format: functional; details: DMS-273, 48 h
HCT-15 = assay: Growth inhibition of human HCT15 cells after 48 hrs by SRB assay; format: functional; details: HCT-15, 48 h
[17] = Growth inhibition of human MKN1 cells after 48 hrs by SRB assay; format: functional; details: MKN-1, 48 h
OVCAR-3 = assay: Growth inhibition of human OVCAR3 cells after 48 hrs by SRB assay; format: functional; details: OVCAR-3, 48 h
HT-29 = assay: Growth inhibition of human HT-29 cells after 48 hrs by SRB assay; format: functional; details: HT-29, 48 h
MKN-45 = assay: Growth inhibition of human MKN45 cells after 48 hrs by SRB assay; format: functional; details: MKN-45, 48 h
[18] = molecular target: Protein kinase C theta type (Homo sapiens, UniProt Q04759); assay: Displacement of [3H]PDBu from PKCtheta C1B domain (unknown origin)
Protein kinase C theta type, sequence (Q04759 whole entry, the tested form may be a part): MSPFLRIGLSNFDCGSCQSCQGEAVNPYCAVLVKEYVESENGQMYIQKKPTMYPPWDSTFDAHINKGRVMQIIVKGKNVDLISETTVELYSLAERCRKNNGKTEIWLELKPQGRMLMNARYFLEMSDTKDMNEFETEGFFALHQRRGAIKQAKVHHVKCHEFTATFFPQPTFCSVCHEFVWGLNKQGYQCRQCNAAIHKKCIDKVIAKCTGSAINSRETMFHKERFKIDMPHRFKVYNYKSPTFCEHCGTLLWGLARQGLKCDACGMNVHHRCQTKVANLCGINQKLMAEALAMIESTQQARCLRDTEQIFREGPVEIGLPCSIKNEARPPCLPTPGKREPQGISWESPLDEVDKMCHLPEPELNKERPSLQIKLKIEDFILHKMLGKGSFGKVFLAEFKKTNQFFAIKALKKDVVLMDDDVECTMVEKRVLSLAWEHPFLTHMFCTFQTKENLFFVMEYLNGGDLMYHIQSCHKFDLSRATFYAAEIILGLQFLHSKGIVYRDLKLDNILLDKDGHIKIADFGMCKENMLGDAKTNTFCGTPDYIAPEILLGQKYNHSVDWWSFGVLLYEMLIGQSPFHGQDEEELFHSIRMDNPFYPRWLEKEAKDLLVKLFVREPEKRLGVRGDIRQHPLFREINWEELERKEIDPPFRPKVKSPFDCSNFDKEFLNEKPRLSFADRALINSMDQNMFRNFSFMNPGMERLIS

[19] = molecular target: Protein kinase C gamma type (Homo sapiens, UniProt P05129); assay: Displacement of [3H]PDBu from PKCgamma C1A domain (unknown origin)
U-251 = assay: Growth inhibition of human U251 cells after 48 hrs by SRB assay; format: functional; details: U-251, 48 h
SF-539 = assay: Growth inhibition of human SF539 cells after 48 hrs by SRB assay; format: functional; details: SF-539, 48 h
MKN-28 = assay: Growth inhibition of human MKN28 cells after 48 hrs by SRB assay; format: functional; details: MKN-28, 48 h
SNB-75 = assay: Growth inhibition of human SNB75 cells after 48 hrs by SRB assay; format: functional; details: SNB-75, 48 h
DU-145 = assay: Growth inhibition of human DU145 cells after 48 hrs by SRB assay; format: functional; details: DU-145, 48 h
[20] = molecular target: Protein kinase C epsilon type (Homo sapiens, UniProt Q02156); assay: Displacement of [3H]PDBu from PKCepsilon C1B domain (unknown origin)
Protein kinase C epsilon type, sequence (Q02156 whole entry, the tested form may be a part): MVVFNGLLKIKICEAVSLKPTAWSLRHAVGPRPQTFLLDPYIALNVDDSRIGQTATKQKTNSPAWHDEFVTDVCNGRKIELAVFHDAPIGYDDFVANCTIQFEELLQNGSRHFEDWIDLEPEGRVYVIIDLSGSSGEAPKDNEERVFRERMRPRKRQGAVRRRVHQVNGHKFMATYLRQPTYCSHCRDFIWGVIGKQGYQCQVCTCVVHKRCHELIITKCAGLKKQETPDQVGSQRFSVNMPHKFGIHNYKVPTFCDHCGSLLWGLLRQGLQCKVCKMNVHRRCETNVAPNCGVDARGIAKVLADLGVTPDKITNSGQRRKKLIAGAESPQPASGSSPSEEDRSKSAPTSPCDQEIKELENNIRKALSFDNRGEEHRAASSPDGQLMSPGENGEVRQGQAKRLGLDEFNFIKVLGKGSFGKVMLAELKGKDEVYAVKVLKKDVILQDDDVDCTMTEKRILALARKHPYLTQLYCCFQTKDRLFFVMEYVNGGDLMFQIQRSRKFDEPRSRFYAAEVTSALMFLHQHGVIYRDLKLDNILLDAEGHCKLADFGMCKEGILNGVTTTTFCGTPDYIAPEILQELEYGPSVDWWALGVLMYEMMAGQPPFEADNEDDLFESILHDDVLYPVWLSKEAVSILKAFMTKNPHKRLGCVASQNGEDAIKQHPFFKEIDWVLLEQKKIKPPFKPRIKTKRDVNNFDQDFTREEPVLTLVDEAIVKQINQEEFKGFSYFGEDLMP

St-4 = assay: Growth inhibition of human St-4 cells after 48 hrs by SRB assay; format: functional; details: St-4, 48 h
SF-295 = assay: Growth inhibition of human SF295 cells after 48 hrs by SRB assay; format: functional; details: SF-295, 48 h
DMS-114 = assay: Growth inhibition of human DMS114 cells after 48 hrs by SRB assay; format: functional; details: DMS-114, 48 h
[21] = Growth inhibition of human HBC5 cells after 48 hrs by SRB assay; format: functional; details: HBC5, 48 h
[22] = Growth inhibition of human HCC2998 cells after 48 hrs by SRB assay; format: functional; details: HCC 2998, 48 h
PC-3 = assay: Growth inhibition of human PC3 cells after 48 hrs by SRB assay; format: functional; details: PC-3, 48 h
MKN-7 = assay: Growth inhibition of human MKN7 cells after 48 hrs by SRB assay; format: functional; details: MKN-7, 48 h
SNB-78 = assay: Growth inhibition of human SNB-78 cells after 48 hrs by SRB assay; format: functional; details: SNB-78, 48 h
OVCAR-5 = assay: Growth inhibition of human OVCAR5 cells after 48 hrs by SRB assay; format: functional; details: OVCAR-5, 48 h
SF-268 = assay: Growth inhibition of human SF268 cells after 48 hrs by SRB assay; format: functional; details: SF-268, 48 h
MDA-MB-231 = assay: Growth inhibition of human MDA-MB-231 cells after 48 hrs by SRB assay; format: functional; details: MDA-MB-231, 48 h
LOX IMVI = assay: Growth inhibition of human LOXIMVI cells after 48 hrs by SRB assay; format: functional
A549 = assay: Growth inhibition of human A549 cells after 48 hrs by SRB assay; format: functional; details: A549, 48 h
NCI-H460 = assay: Growth inhibition of human NCI-H460 cells after 48 hrs by SRB assay; format: functional; details: NCI-H460, 48 h
[23] = molecular target: Protein kinase C beta type (Homo sapiens, UniProt P05771); assay: Displacement of [3H]PDBu from PKCbeta C1A domain (unknown origin)
Protein kinase C beta type, sequence (P05771 whole entry, the tested form may be a part): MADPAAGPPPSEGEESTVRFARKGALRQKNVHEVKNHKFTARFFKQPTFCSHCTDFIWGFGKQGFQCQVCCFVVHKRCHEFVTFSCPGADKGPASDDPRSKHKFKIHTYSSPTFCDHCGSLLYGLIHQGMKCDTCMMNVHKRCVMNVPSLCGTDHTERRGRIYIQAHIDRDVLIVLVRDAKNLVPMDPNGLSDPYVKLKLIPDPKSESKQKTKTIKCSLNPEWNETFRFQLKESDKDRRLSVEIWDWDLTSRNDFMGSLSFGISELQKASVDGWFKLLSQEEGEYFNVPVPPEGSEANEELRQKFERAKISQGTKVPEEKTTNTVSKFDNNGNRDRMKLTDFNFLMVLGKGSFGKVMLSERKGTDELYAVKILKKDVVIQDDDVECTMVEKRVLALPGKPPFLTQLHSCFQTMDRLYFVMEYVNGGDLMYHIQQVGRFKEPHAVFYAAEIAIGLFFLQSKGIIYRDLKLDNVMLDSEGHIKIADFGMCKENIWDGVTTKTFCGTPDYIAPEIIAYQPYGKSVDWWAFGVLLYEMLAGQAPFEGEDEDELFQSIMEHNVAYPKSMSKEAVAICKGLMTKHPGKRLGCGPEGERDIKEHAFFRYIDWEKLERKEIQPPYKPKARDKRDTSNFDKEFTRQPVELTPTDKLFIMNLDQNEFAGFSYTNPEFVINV

Structure (SMILES): CO[C@@H](CC[C@H](C)[C@H]1O[C@@]23C[C@H](OC(=O)C[C@H]([C@@H](C)O)OC(=O)C[C@](O)(O2)[C@H](C)CC3(C)C)[C@@H]1C)c1cccc(O)c1 [DEBROMOAPLYSIATOXIN]
- Activity (Mus musculus [1]): Toxic
- Activity (Raji [2]): 21.1%
- Activity (Mus musculus [3]): 90%
- Activity (Mus musculus [4]): Toxic
- Activity (Raji [5]): 22.9%
- Activity (Mus musculus [6]): 80%
- Activity (Raji [7]): 24.4%
- viability at 0.01 µM [8]: 60%
- viability at 0.1 µM [9]: 50%
- viability at 1 µM [10]: 50%

Structure (SMILES): C[C@@H]1[C@@H]([C@@H](C)CCCc2cccc(O)c2)O[C@@]23C[C@@H]1OC(=O)C[C@H]([C@@H](C)O)OC(=O)C[C@](O)(O2)[C@H](C)CC3(C)C [DEMETHOXYDEBROMOAPLYSIATOXIN]
- Activity (Mus musculus [1]): Toxic
- Ki [11]: 0.001 µM
- GI50 (HCT-116): 8.71 µM
- GI50 (ACHN): 2.51 µM
- GI50 (NCI-H522): 4.79 µM
- GI50 (NCI-H226): 0.0525 µM
- GI50 (MKN-74): 6.92 µM
- GI50 (NCI-H23): 6.17 µM
- GI50 (OVCAR-8): 14.8 µM
- GI50 [12]: 15.1 µM
- GI50 (SK-OV-3): 7.24 µM
- GI50 [13]: 6.17 µM
- GI50 (KM12): 3.47 µM
- Ki [14]: 0.00032 µM
- GI50 [15]: < 0.01 µM
- Activity (Raji [2]): 14.3%
- GI50 (OVCAR-4): 7.24 µM
- Ki [16]: 0.00018 µM
- GI50 (MCF7): 5.62 µM
- GI50 (DMS-273): 3.47 µM
- GI50 (HCT-15): 9.77 µM
- GI50 [17]: 5.5 µM
- GI50 (OVCAR-3): 8.13 µM
- Activity (Mus musculus [3]): 90%
- GI50 (HT-29): 12.3 µM
- GI50 (MKN-45): 6.76 µM
- Ki [18]: 0.0002 µM
- Activity (Mus musculus [4]): Toxic
- Ki [19]: 0.00069 µM
- Activity (Raji [5]): 17.9%
- GI50 (U-251): 7.24 µM
- GI50 (SF-539): 11.5 µM
- GI50 (MKN-28): 6.76 µM
- GI50 (SNB-75): 10.2 µM
- Activity (Mus musculus [6]): 70%
- GI50 (DU-145): 10.7 µM
- Ki [20]: 0.0013 µM
- GI50 (St-4): 0.0129 µM
- GI50 (SF-295): 2.95 µM
- GI50 (DMS-114): 5.5 µM
- Activity (Raji [7]): 18.6%
- GI50 [21]: 11.2 µM
- GI50 [22]: 0.0692 µM
- GI50 (PC-3): 4.57 µM
- GI50 (MKN-7): 2.75 µM
- GI50 (SNB-78): 6.46 µM
- GI50 (OVCAR-5): 4.9 µM
- viability at 0.01 µM [8]: 60%
- GI50 (SF-268): 13.2 µM
- GI50 (MDA-MB-231): 0.049 µM
- GI50 (LOX IMVI): 1.62 µM
- viability at 0.1 µM [9]: 50%
- GI50 (A549): 0.145 µM
- viability at 1 µM [10]: 50%
- GI50 (NCI-H460): 0.01 µM
- Ki [23]: 0.0015 µM
